Results on ten compounds are retold here after patent US8492346B2, “Methods of use of epsilon inhibitor compounds for the attenuation of pain” (KAI Pharmaceuticals, Inc., priority 2007, dated 2013).

A short description of data set [1]: Chemical stability of cargo/carrier peptide constructs. Format: physicochemical. The conditions noted are these: 9 days of treatment. As to the method:
(§1) The plasma and chemical stability of various cargo/carrier peptide constructs described in Example 1 was tested. Plasma stability of the compounds was tested using both human and rat sera and the amount of starting material was determined after 30 minutes of treatment. Chemical stability was evaluated by determining the amount of starting material remaining after 9 days of treatment.
The chemical stability of various cargo/carrier peptide constructs described in Example 1 was tested by examining the relative concentration of the peptides over a time period of more than 200 hours at 37° C.

Data set [2] can be described thus: Plasma stability in human sera. Format: in vitro ADME. The conditions noted are these: for remaining at 0.5 h: plasma, human sera, 30 minutes. On the procedure: as §1
(§2) The plasma stability of various cargo/carrier peptide constructs described in Example 1 was tested using both human and rat sera and the amount of starting material was determined over time to 30 minutes of treatment. The time course data for cargo/carrier peptides KP-1586, KP-1630, and KP-1631 is shown in FIG. 3, the data for peptides KP-1632, KP-1633, and KP-1634 is shown in FIG. 4, and the data for peptides KP-1635, KP-1636, and KP-1637 is shown in FIG. 5.

Data set [3] can be described thus: Plasma stability in rat sera. The conditions noted are these: 30 minutes. Format: in vitro ADME. As to the method: as §1, §2
The subject of data set [4] is carrageenan-induced mechanical hyperalgesia. Put plainly: Carrageenan inflammatory pain model, Randall-Selitto paw-withdrawal test. Format: in vivo, rat. As to the method: The nociceptive flexior reflex was quantified on lightly restrained rats by using a Basile Analgesymeter (Randall-Selitto test). Inflammatory hyperlagesia was induced by injection of Carr (1%, 5 uL, i.d.), which was injected unilaterally to the dorsum of the hindpaw one-hour prior to compound administration. The εPKC inhibitor peptide (εV1-2) was injected via systemic routes.
The nociceptive flexior reflex was quantified on lightly restrained rats by using a Basile Analgesymeter (Randall-Selitto test). Inflammatory hyperlagesia was induced by injection of Carr (1%, 5 μL, i.d.), which was injected unilaterally to the dorsum of the hindpaw one-hr prior to compound administration. The εPKC inhibitor peptide (εV1-2) was injected via systemic routes.
The rat carrageenan model has been extensively used to evaluate the response to modulators of inflammatory pain. In the model used for the studies described below, a single 5 microL injection of a 1% solution of carrageenan into the plantar surface of the right hindpaw was used to elicit an inflammatory response resulting in local edema and mechanical hyperalgesia. The mechanical hyperalgesia was quantitated as previously described using measurements of the nociceptive flexion reflex (Randall-Selitto paw-withdrawal test) in response to mechanical painful stimulation at the site of carrageenan injection. […] In the absence of further treatment, the PWT remained stable at ˜55 g for several hours, making it possible to use this model to evaluate the time-course of the response to treatment over the course of at least six hours after the establishment of the disease state.

`CC(=O)N[C@@H](CSSC[C@H](N)C(=O)N[C@@H](CCC(=O)O)C(=O)N[C@@H](C)C(=O)N[C@H](C(=O)N[C@@H](CO)C(=O)N[C@@H](CC(C)C)C(=O)N[C@@H](CCCCN)C(=O)N1CCC[C@H]1C(=O)N[C@H](C(=O)O)[C@@H](C)O)C(C)C)C(=O)N[C@@H](Cc1ccc(O)cc1)C(=O)NCC(=O)N[C@@H](CCCNC(=N)N)C(=O)N[C@@H](CCCCN)C(=O)N[C@@H](CCCCN)C(=O)N[C@@H](CCCNC(=N)N)C(=O)N[C@@H](CCCNC(=N)N)C(=O)N[C@@H](CCC(N)=O)C(=O)N[C@@H](CCCNC(=N)N)C(=O)N[C@@H](CCCNC(=N)N)C(=O)N[C@@H](CCCNC(=N)N)C(N)=O` [KP-1586, C-E-A-V-S-L-K-P-T]: the fraction remaining at 216 h in data set [1] worked out at 57%. Besides, the results for the amount remaining at 0.5 h in data set [2] and in data set [3] were 85% and 77%, respectively.
For the compound `CC(=O)N[C@@H](CSSC[C@H](NC(C)=O)C(=O)N[C@@H](CCC(=O)O)C(=O)N[C@@H](C)C(=O)N[C@H](C(=O)N[C@@H](CO)C(=O)N[C@@H](CC(C)C)C(=O)N[C@@H](CCCCN)C(=O)N1CCC[C@H]1C(=O)N[C@H](C(N)=O)[C@@H](C)O)C(C)C)C(=O)N[C@@H](Cc1ccc(O)cc1)C(=O)NCC(=O)N[C@@H](CCCNC(=N)N)C(=O)N[C@@H](CCCCN)C(=O)N[C@@H](CCCCN)C(=O)N[C@@H](CCCNC(=N)N)C(=O)N[C@@H](CCCNC(=N)N)C(=O)N[C@@H](CCC(N)=O)C(=O)N[C@@H](CCCNC(=N)N)C(=O)N[C@@H](CCCNC(=N)N)C(=O)N[C@@H](CCCNC(=N)N)C(N)=O` [KP-1630, Ac-C-E-A-V-S-L-K-P-T-NH2], the fraction remaining at 216 h in data set [1] was 67%. Further, the “Plasma stability, time course to 30 minutes” value in data set [2] (human and rat sera, FIGS. 3-5) is on record as “little impact on plasma stability”. The values for the fraction remaining at 0.5 h in data set [2] and in data set [3] were 76% and 77%, respectively.
On to `CC(=O)N[C@@H](CSSC[C@H](NC(C)=O)C(=O)N[C@@H](CC(C)C)C(=O)N[C@@H](CCCCN)C(=O)N1CCC[C@H]1C(=O)N[C@H](C(=O)N[C@@H](C)C(=O)N[C@@H](Cc1c[nH]c2ccccc12)C(=O)N[C@@H](CO)C(=O)N[C@@H](CC(C)C)C(=O)N[C@@H](CCCNC(=N)N)C(N)=O)[C@@H](C)O)C(=O)N[C@@H](Cc1ccc(O)cc1)C(=O)NCC(=O)N[C@@H](CCCNC(=N)N)C(=O)N[C@@H](CCCCN)C(=O)N[C@@H](CCCCN)C(=O)N[C@@H](CCCNC(=N)N)C(=O)N[C@@H](CCCNC(=N)N)C(=O)N[C@@H](CCC(N)=O)C(=O)N[C@@H](CCCNC(=N)N)C(=O)N[C@@H](CCCNC(=N)N)C(=O)N[C@@H](CCCNC(=N)N)C(N)=O` [KP-1631, Ac-C-L-K-P-T-A-W-S-L-R-NH2], for which the share remaining at 216 h in data set [1] came to 76%. In addition, the amount remaining at 0.5 h in data set [2] is 49%; in data set [3], 67%.
For `CC(=O)N[C@@H](CSSC[C@H](NC(C)=O)C(=O)N[C@@H](CCC(=O)O)C(=O)N[C@@H](C)C(=O)N[C@H](C(=O)N[C@@H](CO)C(=O)N[C@@H](CC(C)C)C(=O)N[C@@H](CCCCN)C(=O)N1CCC[C@H]1C(=O)N[C@H](C(=O)N[C@@H](C)C(=O)N[C@@H](Cc1c[nH]c2ccccc12)C(=O)N[C@@H](CO)C(=O)N[C@@H](CC(C)C)C(=O)N[C@@H](CCCNC(=N)N)C(=O)O)[C@@H](C)O)C(C)C)C(=O)N[C@@H](Cc1ccc(O)cc1)C(=O)NCC(=O)N[C@@H](CCCNC(=N)N)C(=O)N[C@@H](CCCCN)C(=O)N[C@@H](CCCCN)C(=O)N[C@@H](CCCNC(=N)N)C(=O)N[C@@H](CCCNC(=N)N)C(=O)N[C@@H](CCC(N)=O)C(=O)N[C@@H](CCCNC(=N)N)C(=O)N[C@@H](CCCNC(=N)N)C(=O)N[C@@H](CCCNC(=N)N)C(N)=O` [KP-1632, Ac-C-E-A-V-S-L-K-P-T-A-W-S-L-R], in data set [1], the fraction remaining at 216 h came out at 89%. In addition, the values for the amount remaining at 0.5 h in data set [2] and in data set [3] were 54% and 61%, respectively.
The like results for `CC(=O)N[C@@H](CCC(=O)O)C(=O)N[C@@H](C)C(=O)N[C@H](C(=O)N[C@@H](CO)C(=O)N[C@@H](CC(C)C)C(=O)N[C@@H](CCCCN)C(=O)N1CCC[C@H]1C(=O)N[C@H](C(=O)NCC(=O)NCC(=O)NCCCC[C@H](NC(=O)CNC(=O)CNC(=O)[C@@H](NC(=O)[C@@H]1CCCN1C(=O)[C@H](CCCCN)NC(=O)[C@H](CC(C)C)NC(=O)[C@H](CO)NC(=O)[C@@H](NC(=O)[C@H](C)NC(=O)[C@H](CCC(=O)O)NC(C)=O)C(C)C)[C@@H](C)O)C(=O)N[C@@H](CSSC[C@H](NC(C)=O)C(=O)N[C@@H](Cc1ccc(O)cc1)C(=O)NCC(=O)N[C@@H](CCCNC(=N)N)C(=O)N[C@@H](CCCCN)C(=O)N[C@@H](CCCCN)C(=O)N[C@@H](CCCNC(=N)N)C(=O)N[C@@H](CCCNC(=N)N)C(=O)N[C@@H](CCC(N)=O)C(=O)N[C@@H](CCCNC(=N)N)C(=O)N[C@@H](CCCNC(=N)N)C(=O)N[C@@H](CCCNC(=N)N)C(N)=O)C(=O)O)[C@@H](C)O)C(C)C` [KP-1634, [Ac-E-A-V-S-L-K-P-T-G-G]-K-C] were, in that order, 82%, 87% and 106%.
For the compound `CC(=O)N[C@@H](CSSC[C@@H](NC(=O)[C@@H](CCC(=O)O)NC(=O)[C@@H](C)NC(=O)[C@H](NC(=O)[C@@H](CO)NC(=O)[C@@H](CC(C)C)NC(=O)[C@@H](CCCCN)NC(=O)[C@H]1CCCN1C(=O)[C@H](N)[C@H](C)O)C(C)C)C(=O)O)C(=O)N[C@@H](Cc1ccc(O)cc1)C(=O)NCC(=O)N[C@@H](CCCNC(=N)N)C(=O)N[C@@H](CCCCN)C(=O)N[C@@H](CCCCN)C(=O)N[C@@H](CCCNC(=N)N)C(=O)N[C@@H](CCCNC(=N)N)C(=O)N[C@@H](CCC(N)=O)C(=O)N[C@@H](CCCNC(=N)N)C(=O)N[C@@H](CCCNC(=N)N)C(=O)N[C@@H](CCCNC(=N)N)C(N)=O` [KP-1635, t-p-k-l-s-v-a-e-c], the amount remaining at 216 h in data set [1] stood at 95%. In addition, the results for the amount remaining at 0.5 h in data set [2] and in data set [3] were 63% and 72%, respectively.
Consider `CC(C)C[C@H](NC(=O)[C@H](CO)NC(=O)[C@@H](NC(=O)[C@H](C)NC(=O)[C@H](CCC(=O)O)NC(=O)[C@@H](N)CSSC[C@H](N)C(=O)N[C@@H](Cc1ccc(O)cc1)C(=O)NCC(=O)N[C@@H](CCCNC(=N)N)C(=O)N[C@@H](CCCCN)C(=O)N[C@@H](CCCCN)C(=O)N[C@@H](CCCNC(=N)N)C(=O)N[C@@H](CCCNC(=N)N)C(=O)N[C@@H](CCC(N)=O)C(=O)N[C@@H](CCCNC(=N)N)C(=O)N[C@@H](CCCNC(=N)N)C(=O)N[C@@H](CCCNC(=N)N)C(=O)O)C(C)C)C(=O)N[C@@H](CCCCN)C(=O)N1CCC[C@H]1C(=O)N[C@H](C(=O)O)[C@@H](C)O` [KP-1636, C-E-A-V-S-L-K-P-T, reference compound], for which, in data set [1], the amount remaining at 216 h amounted to 27%. Also, the amount remaining at 0.5 h in data set [2] and in data set [3] was 79% in each case.
Consider `CC(=O)N[C@@H](CCSSCC[C@H](NC(C)=O)C(=O)N[C@@H](CCC(=O)O)C(=O)N[C@@H](C)C(=O)N[C@H](C(=O)N[C@@H](CO)C(=O)N[C@@H](CC(C)C)C(=O)N[C@@H](CCCCN)C(=O)N1CCC[C@H]1C(=O)N[C@H](C(N)=O)[C@@H](C)O)C(C)C)C(=O)N[C@@H](Cc1ccc(O)cc1)C(=O)NCC(=O)N[C@@H](CCCNC(=N)N)C(=O)N[C@@H](CCCCN)C(=O)N[C@@H](CCCCN)C(=O)N[C@@H](CCCNC(=N)N)C(=O)N[C@@H](CCCNC(=N)N)C(=O)N[C@@H](CCC(N)=O)C(=O)N[C@@H](CCCNC(=N)N)C(=O)N[C@@H](CCCNC(=N)N)C(=O)N[C@@H](CCCNC(=N)N)C(=O)O` [KP-1638, Ac-hC-E-A-V-S-L-K-P-T-NH2], for which, in data set [1], the amount remaining at 216 h is 100%.
`COc1ccc2c(c1)c(CC(=O)O)c(C)n2C(=O)c1ccc(Cl)cc1` [indomethacin, reference compound]: in data set [4] (oral, 10 mg/kg, after end of 5-hr IV infusion of KAI-1678), the Carrageenan-induced mechanical hyperalgesia entry is recorded as “completely reversed the mechanical hyperalgesia”.
Consider E-A-V-S-L-K-P-T (EAVSLKPT) [εV1-2], for which the “Anti-hyperalgesic effect after surgical sympathectomy” value in data set [4] (bilateral lumbar sympathectomy plus suprarenal ganglionectomy 7 days before) is listed as “completely abolished anti-hyperalgesic effects”. Further, the “Paw-withdrawal threshold (PWT)” value in data set [4] (intradermal and subcutaneous injection, FIG. 14) is “Increases in paw-withdrawal threshold (PWT)”. In addition, in data set [4] (subcutaneous injection, ipsilateral or contralateral hindlimb or dorsal trunk), the Carr-induced mechanical hyperalgesia entry was “dose-dependently suppressed Carr-induced mechanical hyperalgesia”. In addition, in data set [4] (subcutaneous, distal to transection of sciatic and saphenous nerves, contralateral paw), the “Carr-induced mechanical hyperalgesia after nerve transection” value is “no longer suppression of Carr-induced mechanical hyperalgesia”.
